With `CCCC(C)(C)C(=O)Nc1ccc(Cl)cc1` the logP was 3.83.

For `CC(C)CNC(=O)Nc1ccc(Cl)c(Cl)c1`, the logP was 4.48.

`CCNc1nc(Cl)nc(NC2CCC2)n1` gave a logP of 2.77.

Work on `CCCc1ccc(NC(=O)N(C)C)cc1` yielded a logP of 2.55.

`CCCC(C)C(=O)Nc1ccc(C)c(Cl)c1` (centres undefined) showed a logP of 4.31.

`CN(C)C(=O)Nc1cccc(Cc2ccccc2)c1` gave a logP of 2.83.

Work on `CNC(=O)Nc1cccc(OC)c1` yielded a logP of 1.26.

With `C=CC(C)C(=O)Nc1ccc(Cl)cc1Cl` (centres undefined) the logP was 3.49.

`CC1(NC(=O)Nc2ccccc2)CCCCC1` showed a logP of 3.6.

Compound `CCCCCC(C)Nc1nc(Cl)nc(NCC)n1` (centres undefined) has a logP of 4.74.

Compound `C=CCNc1nc(Cl)nc(NCC=C)n1` has a logP of 2.75.

With `CCNc1nc(Cl)nc(NCC2CC2)n1` the logP was 2.85.

Work on `CCNc1nc(Cl)nc(NC2CCCCC2)n1` yielded a logP of 3.63.

`O=C(Cc1ccccc1)Nc1cccc(Cl)c1` gave a logP of 3.61.

Reference: the OPERA property sets (Mansouri et al. 2018)
